Experimental data as given in article PMC9656319, “Pharmacokinetics and Tissue Distribution of Coumarins from Tagetes lucida in an LPS-Induced Neuroinflammation Model” (Plants, 2022).

Assays:
[1] = Stability of the analytes in spiked plasma, brain, kidney and spleen matrices (autosampler, long-term, freeze-thaw); type: physicochemical, mice; details: for Stability Autosampler RE (%): processed samples in autosampler vials 24 h room temperature; for Stability Freeze-Thaw RE (%): three cycles (−4 °C to 25 °C); for Stability Long-Term RE (%): −70 °C for 30 days
Method: The stability of the compounds obtained from each enriched matrices at the QC concentrations was evaluated under different conditions that covered the processing, handling, and storage phases that could be developed throughout the study.
Individual stock solutions of PE, SC, DF, HR, PU, and rutin (IS) were prepared separately in methanol (1 mg/mL) and stored at −4 °C until use. From the stocks, a working solution in methanol was prepared at a concentration of 200 µg/mL of each coumarin. Blank plasma or organs supernatant samples (80 µL) were spiked with 20 µL of serial dilutions of working solution to obtain calibration curves ranging between 0.156, 0.312, 0.625, 1.25, 2.5, 5, 10, 20, and 40 µg/mL of each coumarin. Quality control (QC) samples were prepared at three levels of 0.3 (low), 3 (medium), and 30 (high) µg/mL for each coumarin.
The stability of the analytes in plasma, brain, kidneys, and spleen was evaluated by the analyzed concentrations of QC subjected to three different conditions. Short-term stability was determined by analysis of samples processed in the autosampler vials at 24 h at room temperature. Long-term stability was tested on samples stored at −70 °C for 30 days. Freeze-thaw stability was determined after three cycles (−4 °C to 25 °C) on three consecutive days.

[2] = set-up: method as in PMID 22465507; details: rats, distribution of SC in different organs; cited from earlier work
[3] = Tissue distribution in the brain after oral hexanic extract of Tagetes lucida, healthy and LPS-administrated mice; type: in vivo, ICR mice; details: after the initial absorption process
Method: After blood sampling, the mice were sacrificed in a chamber with chloroform by an overdose of anesthesia. The brain, kidney, and spleen were quickly removed and rinsed with saline solution, fresh weight was recorded, and immediately placed on ice. Subsequently, the organs were freeze-dried, grounded, and weighted. The lyophilized organs were individually suspended in methanol in a 1:1 volume: dry weight ratio for 24 h, then sonicated for 5 min and centrifuged at 14,000 rpm for 7 min. The supernatants were recovered in clean tubes and stored at −70 °C until their use.
(§1) One hundred microliters of plasma and organs samples, spiked with calibration and QC concentration or samples from the pharmacokinetic study, were mixed with 300 µL of acetonitrile containing the IS at 10 µg/mL for protein precipitation, and vortexed for 3 min. Then, 200 µL of dichloromethane were added, for liquid–liquid extraction of the bioactive compounds, and vortexed for 5 min. The mixture was centrifuged at 14,000 rpm for 10 min, and the extracted organic layers were placed in new tubes, until completely dry at room temperature. For quantitative analysis, samples were resuspended in 100 µL of methanol, transferred to sampling vials, and injected into the chromatographic system, described below.
A pharmacokinetic study was carried out in sixty mice, divided in six subgroups, according to sample collection times. An acute inflammation process by the intraperitoneal (i.p.) administration of LPS at 2 mg/kg was induced in half of the mice per group, while the other half received an i.p. injection of saline solution. Ten min after the damage was induced, the mice were administered with an oral dose of 10 mg/kg of the bioactive fraction dissolved in a 1% Tween-20 aqueous solution. […]
To evaluate the distribution in the tissues, bioactive coumarins were quantified in the lyophilized organs, and concentrations were adjusted to the volumes of liquid obtained by the difference between the dry and fresh weights of each tissue to simulate a distribution approximation of the compounds by tissue system.

[4] = Pharmacokinetic study in plasma after oral hexanic extract of Tagetes lucida, healthy and LPS-damaged mice; type: in vivo, ICR mice; details: plasma; for Cmax / AUC(0-inf) / MRT / Tmax / half-life / AUC(0-t): ICR, mouse, po, 10 mg/kg; for Cmax / AUC(0-inf) / MRT / Tmax / half-life / AUC(0-t) / Cl/F: 10 mg/kg oral hexanic extract, mean ± SEM (n = 5); for Cmax: non-compartmental; for AUC(0-t): to 6 h
Method: The optimized HPLC-validated method for the quantification of coumarins present in the hexane extract of T. lucida was used to evaluate the concentration profiles over time in the plasma, brain, kidney, and spleen biological matrices after an oral administration of 10 mg/kg of the extract.
Blood samples were obtained from the retro-orbital sinus of mice and collected in heparinized tubes. Plasma was separated by centrifugation at 3500 rpm for 5 min and stored in new Eppendorf tubes at −70 °C, until further processing.
as §1
A pharmacokinetic study was carried out in sixty mice, divided in six subgroups, according to sample collection times. An acute inflammation process by the intraperitoneal (i.p.) administration of LPS at 2 mg/kg was induced in half of the mice per group, while the other half received an i.p. injection of saline solution. Ten min after the damage was induced, the mice were administered with an oral dose of 10 mg/kg of the bioactive fraction dissolved in a 1% Tween-20 aqueous solution. Blood and tissue samples were obtained and processed at 0, 0.25, 0.75, 1.5, 2, 4, and 6 h post-dosing, as indicated in the “Samples collection” and “Plasma and tissue samples processing” sections.
Pharmacokinetic parameters of PE, SC, DF, HR, and PU in plasma were calculated by PKSolver software.

Stability Autosampler RE (%) ([1]; brain, nominal 0.3 µg/mL): -2.15% | Stability Freeze-Thaw RE (%) ([1]; brain, nominal 0.3 µg/mL): -1.98% | Stability Long-Term RE (%) ([1]; brain, nominal 0.3 µg/mL): -0.19% | Stability Autosampler RE (%) ([1]; brain, nominal 3.0 µg/mL): 0.37% | Stability Freeze-Thaw RE (%) ([1]; brain, nominal 3.0 µg/mL): -3.09% | Stability Long-Term RE (%) ([1]; brain, nominal 3.0 µg/mL): -0.94% | Stability Autosampler RE (%) ([1]; brain, nominal 30.0 µg/mL): 4.78% | Stability Freeze-Thaw RE (%) ([1]; brain, nominal 30.0 µg/mL): -2.00% | Stability Long-Term RE (%) ([1]; brain, nominal 30.0 µg/mL): -4.75% | Stability Autosampler RE (%) ([1]; kidney, nominal 0.3 µg/mL): 7.01% | Stability Freeze-Thaw RE (%) ([1]; kidney, nominal 0.3 µg/mL): 2.62% | Stability Long-Term RE (%) ([1]; kidney, nominal 0.3 µg/mL): 3.92% | Stability Autosampler RE (%) ([1]; kidney, nominal 3.0 µg/mL): 5.72% | Stability Freeze-Thaw RE (%) ([1]; kidney, nominal 3.0 µg/mL): 1.51% | Stability Long-Term RE (%) ([1]; kidney, nominal 3.0 µg/mL): 2.63% | Stability Autosampler RE (%) ([1]; kidney, nominal 30.0 µg/mL): -0.35% | Stability Freeze-Thaw RE (%) ([1]; kidney, nominal 30.0 µg/mL): 0.49% | Stability Long-Term RE (%) ([1]; kidney, nominal 30.0 µg/mL): 4.36% | Stability Autosampler RE (%) ([1]; plasma, nominal 0.3 µg/mL): 10.18% | Stability Freeze-Thaw RE (%) ([1]; plasma, nominal 0.3 µg/mL): -14.02% | Stability Long-Term RE (%) ([1]; plasma, nominal 0.3 µg/mL): -3.50% | Stability Autosampler RE (%) ([1]; plasma, nominal 3.0 µg/mL): 8.27% | Stability Freeze-Thaw RE (%) ([1]; plasma, nominal 3.0 µg/mL): 2.70% | Stability Long-Term RE (%) ([1]; plasma, nominal 3.0 µg/mL): -14.30% | Stability Autosampler RE (%) ([1]; plasma, nominal 30.0 µg/mL): 4.74% | Stability Freeze-Thaw RE (%) ([1]; plasma, nominal 30.0 µg/mL): -0.10% | Stability Long-Term RE (%) ([1]; plasma, nominal 30.0 µg/mL): -8.41% | Stability Autosampler RE (%) ([1]; spleen, nominal 0.3 µg/mL): -7.70% | Stability Freeze-Thaw RE (%) ([1]; spleen, nominal 0.3 µg/mL): -9.57% | Stability Long-Term RE (%) ([1]; spleen, nominal 0.3 µg/mL): -9.67% | Stability Autosampler RE (%) ([1]; spleen, nominal 3.0 µg/mL): -6.71% | Stability Freeze-Thaw RE (%) ([1]; spleen, nominal 3.0 µg/mL): -2.65% | Stability Long-Term RE (%) ([1]; spleen, nominal 3.0 µg/mL): 2.22% | Stability Autosampler RE (%) ([1]; spleen, nominal 30.0 µg/mL): -0.99% | Stability Freeze-Thaw RE (%) ([1]; spleen, nominal 30.0 µg/mL): -4.22% | Stability Long-Term RE (%) ([1]; spleen, nominal 30.0 µg/mL): -2.12% | time at which the highest concentration in the brain tissue is reached [3]: 15 min
Compound: COc1cc2ccc(=O)oc2cc1OC [SC, scoparone]
quantification of the coumarin inside the brain [2]: not possible to quantify | Cmax ([4]; LPS-damaged ICR mice (LPS 2 mg/kg i.p.)): 1280 ± 110 ng/mL | AUC(0-inf) ([4]; LPS-damaged ICR mice): 2780 ± 210 ng·h/mL | MRT ([4]; LPS-damaged ICR mice): 2.26 ± 0.17 h | Tmax ([4]; LPS-damaged ICR mice): 0.7 ± 0.34 h | half-life ([4]; LPS-damaged ICR mice): 0.65 ± 0.06 h | AUC(0-t) ([4]; LPS-damaged ICR mice): 2770 ± 210 ng·h/mL | AUC(0-inf) ([4]; healthy ICR mice): 4030 ± 630 ng·h/mL | MRT ([4]; healthy ICR mice): 4.68 ± 1.16 h | Tmax ([4]; healthy ICR mice): 1.25 ± 0.25 h | half-life ([4]; healthy ICR mice): 2.88 ± 0.83 h | Cmax ([4]; healthy ICR mice): 970 ± 100 ng/mL | AUC(0-t) ([4]; healthy ICR mice): 2870 ± 90 ng·h/mL | pharmacokinetic characteristics in words ([4]; LPS-treated mice, Figure 3b, 3c): fast distribution and subsequent elimination | Cl/F ([4]; LPS-damaged ICR mice): 36.52 ± 2.68 (mg/kg)/(μg/mL)/h | Cl/F ([4]; healthy ICR mice): 26.64 ± 3.00 (mg/kg)/(μg/mL)/h
